Measured values from article PMC3071989 (Clinical cancer research : an official journal of the …, 2010).

Legend:
[1] = patients who receive weekly docetaxel; cited from earlier work
[2] = Docetaxel plasma pharmacokinetics with and without tariquidar; format: in vivo, human; details: docetaxel 40 mg/m2, tariquidar 150 mg
Pgp [3] = target: T1, Pgp (Homo sapiens, UniProt P08183); experiment: Rhodamine 123 efflux from CD56+ mononuclear cells of patients; format: cell-based
ABCG2 = details: compared with Pgp; cited from earlier work
MRP1 = details: cited from earlier work
Pgp [4] = target: T1, Pgp; experiment: 99mTc-sestamibi scanning before and after tariquidar; format: in vivo; details: after tariquidar 150 mg vs baseline

T1 sequence (P08183 whole entry): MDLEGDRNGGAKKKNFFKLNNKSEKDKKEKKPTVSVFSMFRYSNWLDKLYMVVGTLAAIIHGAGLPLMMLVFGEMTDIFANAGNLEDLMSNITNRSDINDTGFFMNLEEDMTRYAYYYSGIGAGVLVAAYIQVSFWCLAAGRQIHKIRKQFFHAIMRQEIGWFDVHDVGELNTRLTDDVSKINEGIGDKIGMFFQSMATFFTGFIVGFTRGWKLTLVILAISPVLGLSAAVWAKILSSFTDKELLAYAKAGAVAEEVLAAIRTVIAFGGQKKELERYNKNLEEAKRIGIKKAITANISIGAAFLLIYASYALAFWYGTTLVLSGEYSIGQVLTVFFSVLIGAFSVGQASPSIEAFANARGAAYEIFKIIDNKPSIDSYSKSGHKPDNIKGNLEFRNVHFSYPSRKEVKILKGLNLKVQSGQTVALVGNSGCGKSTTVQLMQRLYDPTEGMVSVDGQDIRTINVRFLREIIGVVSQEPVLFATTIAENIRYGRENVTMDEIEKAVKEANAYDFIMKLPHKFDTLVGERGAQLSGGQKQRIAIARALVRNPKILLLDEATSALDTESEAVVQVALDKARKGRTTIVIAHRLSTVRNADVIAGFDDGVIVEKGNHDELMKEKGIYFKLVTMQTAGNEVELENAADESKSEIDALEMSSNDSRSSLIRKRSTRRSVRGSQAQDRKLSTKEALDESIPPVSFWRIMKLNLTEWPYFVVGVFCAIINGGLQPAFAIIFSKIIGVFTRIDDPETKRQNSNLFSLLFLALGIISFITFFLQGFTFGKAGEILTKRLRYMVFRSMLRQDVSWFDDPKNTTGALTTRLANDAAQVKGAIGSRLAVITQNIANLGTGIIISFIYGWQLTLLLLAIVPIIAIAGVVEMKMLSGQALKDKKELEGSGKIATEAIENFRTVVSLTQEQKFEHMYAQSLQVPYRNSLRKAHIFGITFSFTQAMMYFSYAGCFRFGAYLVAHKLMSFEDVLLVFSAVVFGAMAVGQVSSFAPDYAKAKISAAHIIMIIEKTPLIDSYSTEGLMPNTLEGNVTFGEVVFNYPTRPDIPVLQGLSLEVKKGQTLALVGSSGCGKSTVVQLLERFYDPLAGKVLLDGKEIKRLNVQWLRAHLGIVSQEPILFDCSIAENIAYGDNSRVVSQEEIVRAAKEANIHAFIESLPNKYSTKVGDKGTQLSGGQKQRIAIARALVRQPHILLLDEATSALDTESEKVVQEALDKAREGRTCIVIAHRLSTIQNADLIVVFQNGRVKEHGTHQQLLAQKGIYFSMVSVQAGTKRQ

## CC(=O)O[C@@]12CO[C@@H]1C[C@H](O)[C@@]1(C)C(=O)[C@H](O)C3=C(C)[C@@H](OC(=O)[C@H](O)[C@@H](NC(=O)OC(C)(C)C)c4ccccc4)C[C@@](O)([C@@H](OC(=O)c4ccccc4)[C@H]21)C3(C)C [docetaxel]
[1]
  epiphora secondary to canalicular stenosis, incidence: 33-50%
[2]; AUC0-24 and Cmax
  docetaxel disposition, pairwise comparison with and without tariquidar: no significant difference
[2]; 31 patients, plasma
  geometric mean ratio of docetaxel AUC0-24 (with tariquidar/without tariquidar): 1.07 (95% CI: 0.922-1.25)
  geometric mean ratio of docetaxel Cmax (with tariquidar/without tariquidar): 0.907 (95% CI: 0.697-1.18)

## COc1cc2c(cc1OC)CN(CCc1ccc(NC(=O)c3cc(OC)c(OC)cc3NC(=O)c3cnc4ccccc4c3)cc1)CC2 [tariquidar]
Pgp [3]; 24 h after start of tariquidar 150 mg IV infusion, 41 patients
  rhodamine efflux from CD56+ cells compared to Pre levels: significantly decreased
Pgp [3]; tariquidar 150 mg IV
  inhibition of Pgp in circulating mononuclear cells: complete inhibition
ABCG2
  inhibition of ABCG2-mediated resistance in vitro: higher concentrations are required to inhibit ABCG2
MRP1
  inhibition of MRP1: does not inhibit
Pgp [4]; P<0.001
  change in sestamibi AUC, liver: statistically significant change
  change in sestamibi AUC, visualized tumor tissue: statistically significant change
Pgp [4]; two-tailed Student's t-test
  change in sestamibi AUC0-3, cardiac tissue: No statistically significant increase
  change in sestamibi AUC0-3, lung tissue: No statistically significant increase

## C/C=C/C[C@@H](C)C(=O)[C@H]1C(=O)N[C@@H](C(C)C)C(=O)N(C)CC(=O)N(C)[C@@H](CC(C)C)C(=O)N[C@@H](C(C)C)C(=O)N(C)[C@@H](CC(C)C)C(=O)N[C@@H](C)C(=O)N[C@H](C)C(=O)N(C)[C@@H](CC(C)C)C(=O)N(C)[C@@H](CC(C)C)C(=O)N(C)[C@@H](C(C)C)C(=O)N1C [valspodar]
Pgp [3]; exogenously added valspodar 3 μg/ml
  inhibition of Pgp-mediated rhodamine transport: fully inhibits
